Columns and labels:
human 11betaHSD1 = biological target: T1, human 11betaHSD1 (Homo sapiens, UniProt P28845); assay: Human Hek Assay: cortisone to cortisol conversion in HEK-293 cells stably transfected with human 11betaHSD1, cortisol by ELISA; format: cell-based; settings: HEK-293 cells transfected with human 11betaHSD1; 100 nM cortisone, 1 hour; read-out: humHEK (IC50)
T1 construct: stably transfected with full-length human 11betaHSD1 cDNA; expressed in transfected cells; host or cells: HEK-293
Description: HEK-293 cells stably transfected with full-length human 11betaHSD1 cDNA were propagated and expanded in DMEM high glucose media (Invitrogen Cat# 11995-065), supplemented with 10% FCS (Invitrogen Cat# 10082-147), pen/strep (10 μg/mL), and geneticin (10 μg/mL). One day prior to assay, cells were released from flasks using trypsin/EDTA, centrifuged, and washed with plating media (DMEM high glucose, without phenol red; Invitrogen Cat# 21063-029, supplemented with 2% charcoal stripped FCS; Gemini Cat# A22311P). From a 250,000 cells/mL suspension in plating media, 200 μL of cells were seeded into each well of a 96-well coated plate (BioCoat Cat#356461) and cultured overnight at 37° C. The following day, serially diluted 11betaHSD1 inhibitor compounds dissolved in DMSO were added to plating media supplemented with BSA (2 mg/mL final). The final DMSO concentration was 1%. Media was aspirated from plates, and compounds in media were added to each well. The plates were incubated at 37 degrees C. for 1 hour to allow for cellular uptake of compounds. 10 μL of substrate (cortisone) was then added to each well (100 nM final concentration) and incubated for 1 hour at 37 degrees C. Plates were then transferred to ice and 80 μL of media transferred to a 96-well plate and stored at −30° C.
Quantitation of cortisol in cell media was performed by competitive ELISA using ELISA-Light (Tropix Cat# T10206/EL100S4), anti-cortisol EIA antibody (Assay Designs, Inc. Cat#80-1148), and cortisol-enzyme conjugate (Assay Designs, Inc. Cat# 80-1147). 384-well plates (Falcon Cat#3988) were precoated with anti-mouse IgG (Sigma Cat# M-1397) suspended in 0.9% NaCl (5 mg/mL), 50 μL per well, overnight at 4 degrees C. Plates were washed with PBS, 0.1% Tween-20, then washed with PBS alone. Plates were blocked with Blocking Buffer (Tropix Cat# AI075) for 2 hours at room temperature. The plates were then washed as previously described. Assay samples were thawed, diluted 1:4 in DMEM, 2 mg/mL BSA, 1% DMSO, and 24 μL was transferred to wells of a pre-coated 384-well plate, as well as varying amounts of cortisol standard. To each well, 12 μL of cortisol-conjugate and 12 μL of anti-cortisol EIA antibody were added and incubated 2 hrs at room temperature on a orbital plate shaker. The wells were then emptied by inversion, then washed three times with 100 μL of Wash Buffer (Tropix), and then 2 times with 100 μL of Assay Buffer (Tropix). 60 μL of CDP-STAR (Tropix) was added to each well and incubated 10 minutes at room temperature. Chemiluminescence was measured using a Victor V Reader (Perkin Elmer). Cortisol in each sample was interpolated from a standard curve generated with known amounts of cortisol. IC50 values were calculated using the curve fitting software XLFit3 (IDBS).

human 11-β-HSD1 = biological target: T2, human 11-β-HSD1 (Homo sapiens, UniProt P28845); assay: Human H4IIE Assay: steroid conversion assay in H4IIe cells stably transfected with human 11-β-HSD1 cDNA, cortisol by ELISA; format: cell-based; settings: H4IIe cells transfected with human 11-β-HSD1; 200 nM cortisone, 120 minutes; read-out: HumH4IIe (IC50)
T2 construct: expressed in transfected cells; host or cells: H4IIe
Description: H4IIe cells stably transfected with the human 11-β-HSD1 cDNA (humH4IIe) were maintained in Dulbeccos Modified Essential Medium (DMEM)+10% fetal bovine serum (FBS) containing Penicillin (100 IU/ml) and Streptomycin (100 μg/ml), Geneticin (800 μg/ml) and L-Glutamine (2 mM) at 37° C. in a humidified atmosphere (95% air, 5% CO2).
humH4IIe cells at 80% confluence in a 225 cm^2 flask were washed with PBS then detached with warm Trypsin/EDTA. The cells were counted and resuspended in Dulbeccos Modified Essential Medium lacking phenol red (DMEM) containing 2% stripped serum, at a concentration of 100,000 cells per 200 μl, and plated in a 96-well cell culture plate (precoated with Poly-Lysine). The cells were incubated overnight at 37° C. in a humidified atmosphere (95% air, 5% CO2).
Conversion assays were performed one day after seeding 96-well plates. The media was removed and replaced with 100 ul Dulbeccos Modified Essential Medium without phenol red (DMEM) containing 2 mg/ml Bovine Serum Albumin (BSA)+1% DMSO or test compound dissolved in DMSO.
The cells were incubated with test compound for 60 minutes at 37° C. in a humidified atmosphere (95% air, 5% CO2). After 60 minutes, cortisone was added to 200 nM final, and the cells were incubated for 120 minutes at 37° C. in a humidified atmosphere (95% air, 5% CO2).
The reaction was stopped by transferring 80 μl of media to an empty 96-well plate. Samples were stored at −20° C. until assayed for cortisol concentration using an ELISA method.

T1 sequence (P28845 whole entry): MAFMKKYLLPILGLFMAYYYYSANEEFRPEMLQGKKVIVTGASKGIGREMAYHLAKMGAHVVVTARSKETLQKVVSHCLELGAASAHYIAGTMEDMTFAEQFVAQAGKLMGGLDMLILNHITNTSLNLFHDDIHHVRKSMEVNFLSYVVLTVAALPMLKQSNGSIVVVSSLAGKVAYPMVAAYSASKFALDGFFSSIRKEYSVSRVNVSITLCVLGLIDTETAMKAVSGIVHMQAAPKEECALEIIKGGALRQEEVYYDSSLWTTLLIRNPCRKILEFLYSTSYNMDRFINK
T2 sequence (P28845 whole entry): as above

Compound | IC50 (human 11betaHSD1) [nM] | IC50 (human 11-β-HSD1) [nM]
Cn1ncc(C(=O)NC2C3CC4CC2CC(O)(C4)C3)c1-n1cccc1 (stereo not shown) [Example 1, 1-methyl-5-pyrrol-1-yl-1H-pyrazole-4-carboxylic acid (5-hydroxy-adamantan-2-yl)-amide] | 39.9 | –
Cn1ncc(C(=O)N[C@H]2C3CC4CC2C[C@](O)(C4)C3)c1-n1cccc1 [Example 2, trans-1-Methyl-5-pyrrol-1-yl-1H-pyrazole-4-carboxylic acid (5-hydroxy-adamantan-2-yl)-amide] | 22.2 | –
Cn1ncc(C(=O)NC2C3CC4CC(C3)CC2C4)c1Cl (stereo not shown) [Example 5, 5-Chloro-1-methyl-1H-pyrazole-4-carboxylic acid adamantan-2-ylamide] | 189 | –
CC(C)(C)n1ncc(C(=O)NC2C3CC4CC(C3)CC2C4)c1C(F)(F)F (stereo not shown) [Example 6, 1-tert-butyl-5-trifluoromethyl-1H-pyrazole-4-carboxylic acid adamantan-2-ylamide] | 9.8 | –
CC(C)(C)n1ncc(C(=O)N[C@H]2C3CC4CC2C[C@](O)(C4)C3)c1C(F)(F)F [Example 7, trans-1-tert-butyl-5-trifluoromethyl-1H-pyrazole-4-carboxylic acid (5-hydroxy-adamantan-2-yl)-amide] | 601 | –
CC(C)(C)n1ncc(C(=O)N[C@H]2C3CC4CC2C[C@@](O)(C4)C3)c1C(F)(F)F [Example 8, cis-1-tert-butyl-5-trifluoromethyl-1H-pyrazole-4-carboxylic acid (5-hydroxy-adamantan-2-yl)-amide] | 20.2 | –
Cn1ncc(C(=O)N[C@H]2C3CC4CC2C[C@](O)(C4)C3)c1-n1cccn1 [Example 9, trans-2′-Methyl-2′H-[1,3′]bipyrazolyl-4′-carboxylic acid (5-hydroxy-adamantan-2-yl)-amide] | 38.6 | –
O=C(NC1C2CC3CC(C2)CC1C3)c1cnn(C2CC2)c1C(F)(F)F (stereo not shown) [Example 12, 1-cyclopropyl-5-trifluoromethyl-1H-pyrazole-4-carboxylic acid adamantan-2-ylamide] | 22.2 | –
CN1CCN(c2c(C(=O)NC3C4CC5CC(C4)CC3C5)cnn2C)CC1 (stereo not shown) [Example 14, 1-Methyl-5-(4-methyl-piperazin-1-yl)-1H-pyrazole-4-carboxylic acid adamantan-2-ylamide] | 23.3 | –
Cn1ncc(C(=O)NC2C3CC4CC(C3)CC2C4)c1N1CCOCC1 (stereo not shown) [Example 22, 1-methyl-5-morpholin-4-yl-1H-pyrazole-4-carboxylic acid adamantan-2-ylamide] | 16.6 | –
COCCNc1c(C(=O)NC2C3CC4CC(C3)CC2C4)cnn1C (stereo not shown) [Example 23, 5-(2-Methoxy-ethylamino)-1-methyl-1H-pyrazole-4-carboxylic acid adamantan-2-ylamide] | 71.5 | –
COCCN(C)c1c(C(=O)NC2C3CC4CC(C3)CC2C4)cnn1C (stereo not shown) [Example 32, 5-[(2-Methoxy-ethyl)-methyl-amino]-1-methyl-1H-pyrazole-4-carboxylic acid adamantan-2-ylamide] | 26.2 | –
CC(C)(C)n1ncc(C(=O)NC2C3CC4CC(C3)CC2C4)c1-n1cccn1 (stereo not shown) [Example 33, 2′-tert-Butyl-2′H-[1,3′]bipyrazolyl-4′-carboxylic acid adamantan-2-ylamide] | 6.8 | –
CC(C)(C)n1ncc(C(=O)N[C@H]2C3CC4CC2C[C@](O)(C4)C3)c1Cl [Example 34, trans-1-tert-Butyl-5-chloro-1H-pyrazole-4-carboxylic acid (5-hydroxy-adamantan-2-yl)-amide] | 19.2 | 5.6
CC(C)(C)n1ncc(C(=O)N[C@H]2C3CC4CC2C[C@](O)(C4)C3)c1-n1cccn1 [Example 35, trans-2′-tert-Butyl-2′H-[1,3′]bipyrazolyl-4′-carboxylic acid (5-hydroxy-adamantan-2-yl)-amide] | 20 | 0.5
CC(=O)NC12CC3CC(C1)C(NC(=O)c1cnn(C(C)(C)C)c1Cl)C(C3)C2 (stereo not drawn) [Example 46, trans-1-tert-Butyl-5-chloro-1H-pyrazole-4-carboxylic acid (5-acetylamino-adamantan-2-yl)-amide] | 66.2 | 8.5
CC(=O)NC12CC3CC(C1)C(NC(=O)c1cnn(C(C)(C)C)c1C(F)(F)F)C(C3)C2 (stereo not drawn) [Example 48, trans-1-tert-Butyl-5-trifluoromethyl-1H-pyrazole-4-carboxylic acid (5-acetylamino-adamantan-2-yl)-amide] | 18.1 | 0.3
CC(=O)NC12CC3CC(C1)C(NC(=O)c1cnn(C(C)(C)C)c1-n1cccn1)C(C3)C2 (stereo not drawn) [Example 50, trans-2′-tert-Butyl-2′H-[1,3′]bipyrazolyl-4′-carboxylic acid (5-acetylamino-adamantan-2-yl)-amide] | 23.8 | 8
Cn1ncc(C(=O)NC2C3CC4CC2CC(NS(C)(=O)=O)(C4)C3)c1-n1cccn1 (stereo not drawn) [Example 53, trans-2′-Methyl-2′H-[1,3′]bipyrazolyl-4′-carboxylic acid (5-methanesulfonylamino-adamantan-2-yl)-amide] | 76.9 | 6
COCCOCCn1ncc(C(=O)N[C@H]2C3CC4CC2C[C@](O)(C4)C3)c1-n1cccn1 [Example 76, trans-2′-[2-(2-Methoxyethoxy)-ethyl]-2′H-[1,3′]bipryazolyl-4′-carboxylic acid (5-hydroxyadamantan-2-yl)-amide] | – | 15.3
CC(C)(C)OCCn1ncc(C(=O)N[C@H]2C3CC4CC2C[C@](O)(C4)C3)c1C(F)(F)F [Example 77, trans-1-(2-tert-Butoxyethyl)-5-trifluoromethyl-1H-pyrazole-4-carboxylic acid (5-hydroxy-adamantan-2-yl)-amide] | – | 4.6
trans-2′-(2-Methoxyethyl)-2′H-[1,3′]bipyrazolyl-4′-carboxylic acid (5-hydroxy-adamantan-2-yl-amide [Example 73] | 22.9 | 0.6
trans-2′-Methyl-2′H-[1,3′]bipyrazolyl-4′-carboxylic acid (5-acetylamino-adamantan-2-yl)-amide [Example 45] | 48.2 | 5.9

From patent US7728029B2, “Adamantyl-pyrazole carboxamides as inhibitors of 11β-hdroxysteroid dehydrogenase” (Hoffmann-La Roche Inc., priority 2006, dated 2010)
